The results in this text go back to ChEMBL document CHEMBL4028801, “A multifactorial approach to hepatobiliary transporter assessment enables improved therapeutic compound development” (Toxicol Sci, 2013).

Broadly, the IC50 is the point on the concentration scale where inhibition reaches its midpoint.

Where a name gives a salt, the structure may show the parent alone. Some results are limits rather than exact numbers.

Assay [1] has as its target ATP-binding cassette sub-family C member 2 (Homo sapiens, UniProt Q92887). Description: Inhibition of human MRP2 overexpressed in Sf9 cell membrane vesicles assessed as uptake of [3H]-estradiol-17beta-D-glucuronide in presence of ATP and GSH measured after 20 mins by membrane vesicle transport assay.
Assay [2] has as its target ATP-binding cassette sub-family C member 3 (Homo sapiens, UniProt O15438). The assay can be described thus: Inhibition of human MRP3 overexpressed in Sf9 insect cell membrane vesicles assessed as uptake of [3H]-estradiol-17beta-D-glucuronide in presence of ATP and GSH measured after 10 mins by membrane vesicle transport assay. Format: ADME, cell-based.
Assay [3] concerns the target T1, ATP-binding cassette sub-family C member 4 (Homo sapiens, UniProt O15439).
T1 sequence (O15439 whole entry): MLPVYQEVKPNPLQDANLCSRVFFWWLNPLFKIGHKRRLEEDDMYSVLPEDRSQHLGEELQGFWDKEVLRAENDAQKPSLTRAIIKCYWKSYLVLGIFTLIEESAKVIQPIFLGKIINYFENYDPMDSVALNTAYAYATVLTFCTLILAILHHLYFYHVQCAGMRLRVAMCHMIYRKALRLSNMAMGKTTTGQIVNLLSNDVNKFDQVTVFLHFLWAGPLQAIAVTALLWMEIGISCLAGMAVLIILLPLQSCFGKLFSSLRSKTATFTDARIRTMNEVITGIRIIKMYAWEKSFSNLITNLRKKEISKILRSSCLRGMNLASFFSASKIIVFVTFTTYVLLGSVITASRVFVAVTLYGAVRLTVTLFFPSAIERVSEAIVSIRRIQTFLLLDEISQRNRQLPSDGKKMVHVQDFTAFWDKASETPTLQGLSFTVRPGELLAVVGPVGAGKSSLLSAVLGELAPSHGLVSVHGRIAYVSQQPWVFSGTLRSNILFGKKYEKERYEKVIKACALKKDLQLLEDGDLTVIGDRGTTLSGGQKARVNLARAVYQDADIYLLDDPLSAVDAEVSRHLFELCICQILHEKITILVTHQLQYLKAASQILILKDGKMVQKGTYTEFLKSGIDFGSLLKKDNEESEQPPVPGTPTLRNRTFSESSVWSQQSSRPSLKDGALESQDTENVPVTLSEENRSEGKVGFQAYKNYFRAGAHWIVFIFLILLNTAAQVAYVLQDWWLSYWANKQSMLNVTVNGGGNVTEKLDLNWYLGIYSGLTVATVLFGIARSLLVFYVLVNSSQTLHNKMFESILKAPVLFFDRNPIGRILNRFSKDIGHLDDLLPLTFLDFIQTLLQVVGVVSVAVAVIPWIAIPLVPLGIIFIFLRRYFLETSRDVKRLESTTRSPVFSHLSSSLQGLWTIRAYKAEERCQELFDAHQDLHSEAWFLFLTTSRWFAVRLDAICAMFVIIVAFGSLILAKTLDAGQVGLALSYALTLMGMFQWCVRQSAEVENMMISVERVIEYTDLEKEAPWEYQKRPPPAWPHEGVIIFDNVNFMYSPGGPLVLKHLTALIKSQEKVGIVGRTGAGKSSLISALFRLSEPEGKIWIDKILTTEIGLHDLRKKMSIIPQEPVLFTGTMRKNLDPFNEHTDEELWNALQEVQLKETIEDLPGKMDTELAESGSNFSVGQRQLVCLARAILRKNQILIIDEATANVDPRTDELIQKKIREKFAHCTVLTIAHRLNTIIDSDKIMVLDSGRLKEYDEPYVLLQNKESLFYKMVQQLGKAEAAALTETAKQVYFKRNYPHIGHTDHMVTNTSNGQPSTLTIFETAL
The assay can be described thus: Inhibition of human MRP4 overexpressed in Sf9 cell membrane vesicles assessed as uptake of [3H]-estradiol-17beta-D-glucuronide in presence of ATP and GSH measured after 20 mins by membrane vesicle transport assay. The class given is ADME, cell-based.

Sequence of ATP-binding cassette sub-family C member 2 (Q92887 whole entry): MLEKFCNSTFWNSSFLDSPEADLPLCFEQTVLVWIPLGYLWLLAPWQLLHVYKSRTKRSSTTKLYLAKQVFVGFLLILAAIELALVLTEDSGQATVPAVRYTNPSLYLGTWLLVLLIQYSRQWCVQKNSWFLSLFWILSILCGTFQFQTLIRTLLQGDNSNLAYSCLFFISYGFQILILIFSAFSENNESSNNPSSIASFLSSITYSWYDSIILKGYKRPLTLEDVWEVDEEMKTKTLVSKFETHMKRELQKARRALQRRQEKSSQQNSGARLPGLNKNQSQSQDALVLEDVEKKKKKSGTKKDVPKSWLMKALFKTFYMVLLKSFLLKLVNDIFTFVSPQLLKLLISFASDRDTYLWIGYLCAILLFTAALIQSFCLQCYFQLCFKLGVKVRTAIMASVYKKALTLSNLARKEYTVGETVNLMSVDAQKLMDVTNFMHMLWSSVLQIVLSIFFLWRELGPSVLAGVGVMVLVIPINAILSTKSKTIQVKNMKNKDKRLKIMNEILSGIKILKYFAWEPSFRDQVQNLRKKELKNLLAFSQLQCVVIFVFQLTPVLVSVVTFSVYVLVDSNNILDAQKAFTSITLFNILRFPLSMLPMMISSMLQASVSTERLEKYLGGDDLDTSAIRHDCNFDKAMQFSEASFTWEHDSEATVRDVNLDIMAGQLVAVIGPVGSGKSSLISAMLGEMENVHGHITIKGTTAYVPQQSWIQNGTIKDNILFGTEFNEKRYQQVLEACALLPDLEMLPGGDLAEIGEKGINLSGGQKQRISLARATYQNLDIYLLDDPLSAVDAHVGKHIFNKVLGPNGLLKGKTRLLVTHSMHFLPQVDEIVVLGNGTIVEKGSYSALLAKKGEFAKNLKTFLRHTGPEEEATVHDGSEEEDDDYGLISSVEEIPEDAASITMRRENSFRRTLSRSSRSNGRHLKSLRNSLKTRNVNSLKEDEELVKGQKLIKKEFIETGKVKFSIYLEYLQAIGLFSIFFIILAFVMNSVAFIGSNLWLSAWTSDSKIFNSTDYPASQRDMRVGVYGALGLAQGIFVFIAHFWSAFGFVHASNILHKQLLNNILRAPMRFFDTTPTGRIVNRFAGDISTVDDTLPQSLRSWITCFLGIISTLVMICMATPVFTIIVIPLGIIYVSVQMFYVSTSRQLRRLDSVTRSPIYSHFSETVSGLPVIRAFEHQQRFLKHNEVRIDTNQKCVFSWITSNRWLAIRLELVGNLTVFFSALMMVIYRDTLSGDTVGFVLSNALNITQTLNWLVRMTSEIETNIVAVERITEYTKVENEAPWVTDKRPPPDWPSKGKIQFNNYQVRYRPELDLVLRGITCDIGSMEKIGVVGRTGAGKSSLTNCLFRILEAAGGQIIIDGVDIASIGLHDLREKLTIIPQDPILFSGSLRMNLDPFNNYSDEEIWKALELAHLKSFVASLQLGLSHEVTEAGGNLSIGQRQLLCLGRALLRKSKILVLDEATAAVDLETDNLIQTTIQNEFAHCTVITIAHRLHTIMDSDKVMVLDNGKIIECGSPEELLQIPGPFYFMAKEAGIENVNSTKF
Sequence of ATP-binding cassette sub-family C member 3 (O15438 whole entry): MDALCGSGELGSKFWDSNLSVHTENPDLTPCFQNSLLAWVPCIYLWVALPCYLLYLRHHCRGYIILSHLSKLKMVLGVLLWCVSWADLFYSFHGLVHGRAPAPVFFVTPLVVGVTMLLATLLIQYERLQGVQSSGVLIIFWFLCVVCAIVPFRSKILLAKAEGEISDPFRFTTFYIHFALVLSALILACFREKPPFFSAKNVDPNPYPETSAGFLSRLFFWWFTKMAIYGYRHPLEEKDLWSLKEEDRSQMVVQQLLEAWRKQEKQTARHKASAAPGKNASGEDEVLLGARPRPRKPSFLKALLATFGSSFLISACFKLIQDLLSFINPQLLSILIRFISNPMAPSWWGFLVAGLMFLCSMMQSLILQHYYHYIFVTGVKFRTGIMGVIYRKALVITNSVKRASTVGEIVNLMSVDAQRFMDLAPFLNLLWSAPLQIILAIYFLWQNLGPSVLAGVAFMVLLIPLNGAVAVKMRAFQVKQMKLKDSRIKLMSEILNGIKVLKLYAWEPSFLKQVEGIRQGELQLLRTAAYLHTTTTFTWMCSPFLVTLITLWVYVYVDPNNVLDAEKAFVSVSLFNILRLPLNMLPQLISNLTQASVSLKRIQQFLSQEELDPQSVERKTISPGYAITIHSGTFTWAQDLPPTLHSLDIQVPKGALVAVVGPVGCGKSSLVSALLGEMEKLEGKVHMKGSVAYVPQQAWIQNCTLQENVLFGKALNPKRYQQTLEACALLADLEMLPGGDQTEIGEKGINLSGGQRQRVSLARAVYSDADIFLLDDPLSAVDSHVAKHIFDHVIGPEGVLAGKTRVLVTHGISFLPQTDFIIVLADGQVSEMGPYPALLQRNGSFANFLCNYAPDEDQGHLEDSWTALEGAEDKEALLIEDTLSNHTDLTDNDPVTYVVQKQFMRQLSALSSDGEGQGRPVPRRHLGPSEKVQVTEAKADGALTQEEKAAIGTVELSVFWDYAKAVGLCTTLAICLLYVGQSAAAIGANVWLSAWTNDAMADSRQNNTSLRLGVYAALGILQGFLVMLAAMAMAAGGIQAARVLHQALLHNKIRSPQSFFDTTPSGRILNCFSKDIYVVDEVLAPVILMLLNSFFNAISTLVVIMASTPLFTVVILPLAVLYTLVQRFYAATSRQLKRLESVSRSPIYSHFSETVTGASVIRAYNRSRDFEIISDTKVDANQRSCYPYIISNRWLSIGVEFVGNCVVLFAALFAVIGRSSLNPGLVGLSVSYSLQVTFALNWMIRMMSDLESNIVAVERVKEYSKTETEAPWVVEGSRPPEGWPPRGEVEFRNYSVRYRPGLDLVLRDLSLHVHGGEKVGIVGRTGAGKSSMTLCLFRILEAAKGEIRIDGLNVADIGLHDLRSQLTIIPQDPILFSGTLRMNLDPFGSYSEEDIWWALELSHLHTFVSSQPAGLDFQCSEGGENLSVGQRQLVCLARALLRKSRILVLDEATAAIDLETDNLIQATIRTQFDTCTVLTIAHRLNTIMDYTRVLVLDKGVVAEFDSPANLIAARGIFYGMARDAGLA

Take `CN(C)CCCN1c2ccccc2CCc2ccccc21` [IMIPRAMINE]: the IC50 in assay [1], in assay [2] and in assay [3] was > 133 µM each time.
With `C[C@@H](O)[C@H]1C(=O)N2C(C(=O)O)=C(S[C@@H]3CN[C@H](CNS(N)(=O)=O)C3)[C@H](C)[C@H]12` [DORIPENEM], the IC50 in assay [1], in assay [2] and in assay [3] was > 133 µM each time.
On to `O=C(O)c1cn(C2CC2)c2cc(N3CCNCC3)c(F)cc2c1=O` [CIPROFLOXACIN], for which the IC50 in assay [1], in assay [2] and in assay [3] was > 133 µM in each case.
Take `COc1cc2c(c(OC)c1OC)-c1ccc(OC)c(=O)cc1[C@@H](NC(C)=O)CC2` [COLCHICINE]: the 50% inhibitory concentration (IC50) in assay [1], in assay [2] and in assay [3] was > 133 µM throughout.
As to `C#C[C@@]1(O)CC[C@H]2[C@@H]3CCC4=CC(=O)CC[C@@H]4[C@H]3CC[C@@]21C`, the IC50 in assay [1], in assay [2] and in assay [3] was > 133 µM in each case.
With `OC(CCN1CCCC1)(c1ccccc1)C1CCCCC1` (stereo unspecified) [PROCYCLIDINE], the IC50 in assay [1], in assay [2] and in assay [3] was > 133 µM in each case.
On to `Cc1ccc(O)c([C@H](CCN(C(C)C)C(C)C)c2ccccc2)c1` [TOLTERODINE TARTRATE], for which the IC50 in assay [1], in assay [2] and in assay [3] was > 133 µM each time.
For the compound `C[C@]12C=CC(=O)C=C1CC[C@@H]1[C@@H]2[C@@H](O)C[C@@]2(C)[C@H]1CC[C@]2(O)C(=O)CO` [PREDNISOLONE], the IC50 in assay [1], in assay [2] and in assay [3] was > 133 µM throughout.
In the case of `Cc1ncc([N+](=O)[O-])n1CCO` [METRONIDAZOLE], the IC50 in assay [1], in assay [2] and in assay [3] was > 133 µM throughout.
Regarding `CN1CCN(CCCN2c3ccccc3Sc3ccc(Cl)cc32)CC1` [PROCHLORPERAZINE], the IC50 in assay [1], in assay [2] and in assay [3] was > 133 µM throughout.
In the case of `COc1cc([C@@H]2c3cc4c(cc3[C@@H](O[C@@H]3O[C@@H]5CO[C@@H](C)O[C@H]5[C@H](O)[C@H]3O)[C@H]3COC(=O)[C@H]23)OCO4)cc(OC)c1O` [ETOPOSIDE], the IC50 in assay [1], in assay [2] and in assay [3] was > 133 µM in each case.
As to `CC(C)NCC(O)COc1cccc2ccccc12` (stereo unspecified) [PROPRANOLOL], the IC50 in assay [1], in assay [2] and in assay [3] was > 133 µM in each case.
On to `CN(C)CCC(c1ccc(Br)cc1)c1ccccn1` (stereo unspecified) [BROMPHENIRAMINE MALEATE], for which the IC50 in assay [1], in assay [2] and in assay [3] was > 133 µM in each case.
Take `CCN(CC)CCNC(=O)c1c(C)[nH]c(/C=C2\C(=O)Nc3ccc(F)cc32)c1C`: the IC50 in assay [1], in assay [2] and in assay [3] was > 133 µM throughout.
Regarding `O=C1CCc2ccc(OCCCCN3CCN(c4cccc(Cl)c4Cl)CC3)cc2N1` [ARIPIPRAZOLE], the IC50 in assay [1], in assay [2] and in assay [3] was > 133 µM in each case.
Turning to `CCN(CC)CCNC(=O)c1ccc(N)cc1` [PROCAINAMIDE], the IC50 in assay [1], in assay [2] and in assay [3] was > 133 µM in each case.
With `CC[C@H]1OC(=O)[C@H](C)[C@@H](O[C@H]2C[C@@](C)(OC)[C@@H](O)[C@H](C)O2)[C@H](C)[C@@H](O[C@@H]2O[C@H](C)C[C@H](N(C)C)[C@H]2O)[C@](C)(O)C[C@@H](C)C(=O)[C@H](C)[C@@H](O)[C@]1(C)O` [ERYTHROMYCIN], the IC50 in assay [1], in assay [2] and in assay [3] was > 133 µM each time.
On to `OCCOCCN1CCN(C2=Nc3ccccc3Sc3ccccc32)CC1` [QUETIAPINE FUMARATE], for which the IC50 in assay [1], in assay [2] and in assay [3] was > 133 µM throughout.
For `CN[C@@H]1C[C@H]2O[C@@](C)([C@@H]1OC)n1c3ccccc3c3c4c(c5c6ccccc6n2c5c31)C(=O)NC4` [STAUROSPORINE], the values for the half-inhibitory concentration (IC50) in assay [1], in assay [2] and in assay [3] were > 133 µM, > 133 µM and 37.9 µM, respectively.
Regarding `NCCCC[C@H](N[C@@H](CCc1ccccc1)C(=O)O)C(=O)N1CCC[C@H]1C(=O)O` [LISINOPRIL ANHYDROUS], the IC50 in assay [1], in assay [2] and in assay [3] was > 133 µM each time.
In the case of `NC(=O)NO` [HYDROXYUREA], the IC50 in assay [1], in assay [2] and in assay [3] was > 133 µM in each case.
On to `O=c1[nH]cnc2c1ncn2[C@H]1CC[C@@H](CO)O1` [DIDANOSINE], for which the IC50 in assay [1], in assay [2] and in assay [3] was > 133 µM in each case.
For the compound `Cn1cc[nH]c1=S` [METHIMAZOLE], the IC50 in assay [1], in assay [2] and in assay [3] was > 133 µM in each case.
Take `CC/C(=C(\c1ccccc1)c1ccc(OCCN(C)C)cc1)c1ccccc1` [TAMOXIFEN]: the IC50 in assay [1], in assay [2] and in assay [3] was > 133 µM each time.
Turning to `C=C(CC)C(=O)c1ccc(OCC(=O)O)c(Cl)c1Cl` [ETHACRYNIC ACID], the figures for the IC50 in assay [1], in assay [2] and in assay [3] were 3.85 µM, 95.9 µM and > 133 µM, respectively.
The matching figures for `CCS(=O)(=O)CCn1c([N+](=O)[O-])cnc1C` [TINIDAZOLE]: > 133 µM, > 133 µM and > 133 µM.
On to `C[C@@H](c1ncncc1F)[C@](O)(Cn1cncn1)c1ccc(F)cc1F` [VORICONAZOLE], for which the IC50 in assay [1], in assay [2] and in assay [3] was > 133 µM in each case.
Consider `Nc1ccc(S(=O)(=O)c2ccc(N)cc2)cc1` [DAPSONE], for which the IC50 in assay [1], in assay [2] and in assay [3] was > 133 µM each time.
With `COC[C@H]1OC(=O)c2coc3c2[C@@]1(C)C1=C(C3=O)[C@@H]2CCC(=O)[C@@]2(C)C[C@H]1OC(C)=O` [WORTMANNIN], the IC50 was 46.1 µM in assay [1], > 133 µM in assay [2] and 63.2 µM in assay [3].
The like results for `Cn1cnc([N+](=O)[O-])c1Sc1ncnc2nc[nH]c12` [AZATHIOPRINE] were, in that order, > 133 µM, > 133 µM and > 133 µM.
Consider `CN1CCN2c3ncccc3Cc3ccccc3C2C1` (stereo unspecified) [MIRTAZAPINE], for which the IC50 in assay [1], in assay [2] and in assay [3] was > 133 µM throughout.
Take `Cc1ccc(Nc2c(F)cccc2Cl)c(CC(=O)O)c1` [LUMIRACOXIB]: the IC50 in assay [1], in assay [2] and in assay [3] was > 133 µM throughout.
Regarding `Nc1ccn([C@@H]2O[C@H](CO)[C@@H](O)[C@@H]2O)c(=O)n1` [CYTARABINE], the IC50 in assay [1], in assay [2] and in assay [3] was > 133 µM each time.
`O=C1CN(/N=C/c2ccc([N+](=O)[O-])o2)C(=O)N1` [NITROFURANTOIN]: the IC50 was > 133 µM in assay [1], > 133 µM in assay [2] and 20.9 µM in assay [3].
On to `Clc1ccc2c(c1)CCc1cccnc1C2=C1CCNCC1` [DESLORATADINE], for which the IC50 in assay [1], in assay [2] and in assay [3] was > 133 µM throughout.
`C(=C\c1ccccc1)/CN1CCN(C(c2ccccc2)c2ccccc2)CC1` [CINNARIZINE]: the IC50 in assay [1], in assay [2] and in assay [3] was > 133 µM in each case.
Take `C=C(c1ccc(C(=O)O)cc1)c1cc2c(cc1C)C(C)(C)CCC2(C)C` [BEXAROTENE]: the IC50 in assay [1], in assay [2] and in assay [3] was > 133 µM throughout.
